Assay results: patent US4340539A, “Derivatives of 6-bromo penicillanic acid” (priority 1980, dated 1982)
≈ marks a conversion by molar mass, not a printed value. Like-named read-outs stand apart in the source and are kept apart here.

Columns and labels:
[1] = system: β-lactamase producing strains of S. aureus; experiment: animal or person; assay type: in vivo, mice; settings: Staphylococcus aureus, in Mus musculus, po
Protocol: (§1) Drugs were administered orally at 0 and 2 hours postinfection.
(§2) Drugs were suspended in TCMC.

[2] = system: β-lactamase producing strains of E. coli; experiment: animal or person; assay type: in vivo, mice; settings: Escherichia coli, in Mus musculus, po
Protocol: as §1, §2

[3] = system: B. fragilis; experiment: Anti-Bacteroides activity (MIC, agar dilution), alone and in combination with BL-P2013; assay type: cell-based
[4] = system: B. thetaiotaomicron; experiment: as above; assay type: cell-based
Protocol: *Minimum inhibitory concentration (MIC) determined by the agar dilution
method using 50X dilutions of 24 hour cultures as inocula dispensed by th
Steer's inoculator. Assay medium composed of Brucella Agar plus 5% laked
sheep blood and 10 mcg/ml vitamin K.

[5] = system: β-lactamase producing strains of E. coli; experiment: Therapeutic efficacy of amoxicillin in combinations with BL-P2024 in infected mice (Table 7); assay type: in vivo; settings: oral
[6] = system: S. aureus A-9606; experiment: Therapeutic efficacy in mice experimentally infected with a beta-lactamase strain of Staphylococcus aureus (Table 3); assay type: in vivo; settings: for ED50: Staphylococcus aureus, A9606, challenge 5 × 10^8, read-out: PD50/Treatment
Protocol: Treatment schedule: Drugs administered 0 and 2 hours postinfection.

[7] = system: Bacteroides species; experiment: Anti-Bacteroides activity (MIC, agar dilution), alone and in combination with BL-P2013; assay type: cell-based
[8] = system: β-lactamase producing strains of S. aureus; experiment: Therapeutic efficacy of amoxicillin in combinations with BL-P2024 in infected mice (Table 7); assay type: in vivo; settings: Staphylococcus aureus, po, read-out: PD50/Treatment
[9] = system: S. pneumoniae; experiment: Antibacterial activity (MIC); assay type: cell-based; settings: Streptococcus pneumoniae; strain A-9585
[10] = system: E. cloacae; experiment: Antibacterial activity (MIC); assay type: cell-based; settings: Enterobacter cloacae, strain A-9659
[11] = system: S. pyogenes; experiment: Antibacterial activity (MIC); assay type: cell-based; settings: Streptococcus pyogenes; strain A-9604
[12] = system: E. coli; experiment: Antibacterial activity (MIC); assay type: cell-based; settings: Escherichia coli, strain A15119
[13] = system: P. rettgeri; experiment: Antibacterial activity (MIC); assay type: cell-based; settings: Providencia rettgeri; strain A21203
[14] = system: S. aureus; experiment: Antibacterial activity (MIC); assay type: cell-based; settings: Staphylococcus aureus
[15] = system: S. marcescens; experiment: Antibacterial activity (MIC); assay type: cell-based; settings: Serratia marcescens; strain A20019
[16] = system: S. faecalis; experiment: Antibacterial activity (MIC); assay type: cell-based; settings: Enterococcus faecalis; strain A20688
[17] = system: P. mirabilis; experiment: Antibacterial activity (MIC); assay type: cell-based; settings: Proteus mirabilis; strain A-9900
[18] = in vivo; set-up: species or system mice; settings: mouse, blood, po, 100 mg/kg, Test 3, oral 100 mg/kg, 30 min; read-out: Blood level
Description: Compounds prepared in 5% Propylene Glycol & TweenCMC-H2 O.
Values in parentheses are 95% confidence limits.
Assay Organism: E. coli A9675 (pH = 6.6, 0.1% inoculum)

CC1(C)S[C@@H]2[C@H](NC(=O)[C@H](N)c3ccc(O)cc3)C(=O)N2[C@H]1C(=O)O [Amoxicillin]
ED50 ([1]; read-out: PD50/Treatment, oral, S. aureus A9606, challenge 2 × 10^9): > 800 mg/kg
ED50 ([1]; read-out: PD50/Treatment, oral, S. aureus A9606, challenge 7 × 10^8): > 200 mg/kg
ED50 ([1]; read-out: PD50/Treatment, oral, S. aureus A15091, challenge 4 × 10^8): > 200 mg/kg
ED50 ([1]; read-out: PD50/Treatment, oral, S. aureus A15091, challenge 5 × 10^8): > 800 mg/kg
ED50 ([1]; read-out: PD50/Treatment, oral, S. aureus A20379, challenge 5 × 10^8): > 200 mg/kg
ED50 ([1]; read-out: PD50/Treatment, oral, S. aureus A20379, challenge 6 × 10^8): > 200 mg/kg
ED50 ([2]; read-out: PD50/Treatment, oral, E. coli A9675, challenge 6 × 10^5): > 400 mg/kg
ED50 ([2]; read-out: PD50/Treatment, oral, E. coli A9675, challenge 7 × 10^5): > 100 mg/kg
ED50 ([2]; read-out: PD50/Treatment, oral, E. coli A9675, challenge 8 × 10^5): > 200 mg/kg
ED50 ([2]; read-out: PD50/Treatment, oral, E. coli A20649, challenge 5 × 10^5): > 200 mg/kg
ED50 ([2]; read-out: PD50/Treatment, oral, E. coli A20649, challenge 6 × 10^5): > 200 mg/kg
ED50 ([2]; read-out: PD50/Treatment, oral, E. coli A21223, challenge 6 × 10^5): > 200 mg/kg
ED50 ([2]; read-out: PD50/Treatment, oral, E. coli A21223, challenge 7 × 10^5 (first line)): > 200 mg/kg
ED50 ([2]; read-out: PD50/Treatment, oral, E. coli A21223, challenge 7 × 10^5 (third line)): > 200 mg/kg
MIC ([3]; strain A21875, β-lactamase +, read-out: MIC): 8 µg/mL
MIC ([3]; strain A21916, β-lactamase +, read-out: MIC): 8 µg/mL
MIC ([3]; strain A22021, β-lactamase +, read-out: MIC): 4 µg/mL
MIC ([3]; strain A22053, β-lactamase +, read-out: MIC): 8 µg/mL
MIC ([3]; strain A22533, β-lactamase +): > 125 µg/mL
MIC ([3]; strain A22534, β-lactamase +): > 125 µg/mL
MIC ([3]; strain A22535, β-lactamase +): > 125 µg/mL
MIC ([3]; strain A22693, β-lactamase +): 16 µg/mL
MIC ([3]; strain A22694, β-lactamase +): 16 µg/mL
MIC ([3]; strain A22695, β-lactamase +): 125 µg/mL
MIC ([3]; strain A22696, β-lactamase +): > 125 µg/mL
MIC ([3]; strain A22697, β-lactamase +, read-out: MIC): 8 µg/mL
MIC ([3]; strain A22792, β-lactamase +): 125 µg/mL
MIC ([3]; strain A22793, β-lactamase +, read-out: MIC): 8 µg/mL
MIC ([3]; strain A22794, β-lactamase +, read-out: MIC): 8 µg/mL
MIC ([3]; strain A22795, β-lactamase +): 16 µg/mL
MIC ([3]; strain A22797, β-lactamase +): 16 µg/mL
MIC ([3]; strain A22798, β-lactamase +, read-out: MIC): 8 µg/mL
MIC ([4]; Bacteroides thetaiotaomicron, strain A22277, β-lactamase +, read-out: MIC): 16 µg/mL
MIC ([4]; strain A22279, β-lactamase +): 16 µg/mL
PD50/Treatment ([5]; E. coli A9675, challenge 6 × 10^5, vehicle TCMC): > 400 mg/kg
PD50/Treatment ([5]; E. coli A9675, challenge 7 × 10^5, vehicle 50% DMSO): > 100 mg/kg
PD50/Treatment ([5]; E. coli A9675, challenge 7 × 10^5, vehicle TCMC): > 100 mg/kg
PD50/Treatment ([5]; E. coli A9675, challenge 9 × 10^5, vehicle 50% DMSO): > 100 mg/kg
PD50/Treatment ([6]; IM, challenge 7 × 10^8): > 800 mg/kg
ED50 ([6]; IM): > 800 mg/kg
ED50 ([6]; PO): > 800 mg/kg
MIC ([7]; Bacteroides): 16 µg/mL
MIC ([7]; Bacteroides, strain A20927-1, β-lactamase -, read-out: MIC): 0.13 µg/mL
MIC ([7]; Bacteroides, strain A20930, β-lactamase +, read-out: MIC): 32 µg/mL
MIC ([7]; Bacteroides, strain A20933, β-lactamase +, read-out: MIC): 8 µg/mL
MIC ([7]; Bacteroides, strain A20934, β-lactamase +, read-out: MIC): 8 µg/mL
MIC ([7]; Bacteroides, strain A20935, β-lactamase -, read-out: MIC): 0.13 µg/mL
MIC ([7]; strain A20929, β-lactamase +): 16 µg/mL
MIC ([7]; strain A20931, β-lactamase +): 16 µg/mL
MIC ([7]; strain A21954, β-lactamase +): 16 µg/mL
ED50 [8]: > 800 mg/kg

CC1(C)S[C@@H]2[C@H](NC(=O)[C@H](N)c3ccccc3)C(=O)N2[C@H]1C(=O)O [Ampicillin, reference compound]
MIC [9]: 0.004 µg/mL (≈ 0.0114 µM)
MIC [10]: 63 µg/mL (≈ 180 µM)
MIC [11]: 0.004 µg/mL (≈ 0.0114 µM)
MIC [12]: 1 µg/mL (≈ 2.86 µM)
MIC [13]: 4 µg/mL (≈ 11.4 µM)
MIC ([14]; strain A-9537): 0.16 µg/mL (≈ 0.458 µM)
MIC ([14]; strain A-9537, + 50% serum): 0.06 µg/mL
MIC [15]: 16 µg/mL (≈ 45.8 µM)
MIC [16]: 0.13 µg/mL (≈ 0.372 µM)
MIC [17]: 0.13 µg/mL (≈ 0.372 µM)

CC1(CCl)C(C(=O)OC2OC(=O)c3ccccc32)N2C(=O)CC2S1(=O)=O (centres unmarked) [BL-P2036]
concentration at 0.5 h [18]: 6700 ng/mL
